What was measured:
[1] = target: T1, heterodimers of GABAB1b and GABAB2 (Homo sapiens, UniProt O75899+Q9UBS5); test: FLIPR intracellular calcium mobilization in HEK293 cells stably expressing GABAB receptor; type: cell-based; settings: 100 μM GABA = 100%; for EC50: concentration raising reaction rate from 5% with 1 μM GABA to 50%, read-out: Potency (PAM Potency of GABAB); for Emax: maximum reaction rate in presence of 1 μM GABA, test drug up to 30 μM, read-out: Efficacy (PAM Efficacy of GABAB)
T1 construct: host or cells: HEK293
From the text: A natural GABAB receptor has a heterodimeric structure consisting of two kinds of subunits of GABAB1 and GABAB2 (Nature, 1997, vol. 386, p. 239-246) In the subunit of GABAB1, two major splice variants referred to as GABAB1a and 1b exist. However, the two variants have no difference in the pharmacological effects in the receptor-downstreaming signals (Nature, 1998, vol. 396, p. 683-687).
In HEK293 cells expressing the heterodimers of GABAB1b and GABAB2, the PAM action in the presence of GABA was measured over time with a change in the intracellular Ca^2+ concentration using RFU (relative fluorescence units) as an index, and evaluated.
All vectors, wherein each vector was formed by human GABAB1b (NM_021903. 2), GABAB2 (NM_005458. 7), or Gαqo chimera, were incorporated by lipofection to establish stably expressing human embryonic kidney-derived cell lines, HEK293 cells (ATCC).
The Gαqo chimera was fabricated by the following method. The genes coding human Gαq (NM_002072.3) were cloned, and C-terminal 15 base pairs (1107-1121 bp) of ORF (41-1121 bp) of Gaq was substituted with C-terminal 15 base pairs (1948-1962 bp) of ORF (898-1962 bp) of human Gao (NM_138736. 2) into a Gαqo chimera.
A change in the intracellular concentration of calcium mobilized due to activation of a GABAB receptor was measured with a Fluorometric Imaging Plate Reader (FLIPR, Molecular Devices). The stably expressing cells established as described above were proliferated in a D-MEM medium containing a screening agent (0.5 mg/mL G418 Disulfate and 0.2 mg/mL Hydromycin B solution), 1% penicillin/streptomycin, and 10% FCS. About 1×10^4 cells/well were diluted and seeded in a black-wall, 384-well poly-D-lysin-coated plate (Becton Dickinson) in a D-MEM medium containing 10% FCS, but not a selective agent and 1% penicillin/streptomycin. After 24 hours, the medium was removed from the plate, and a Fluo-4 loaded solution (20 μL) was added to each well, followed by incubation at room temperature for 2 hours. The fluorescent reagent loaded solution was removed from each well, the cells were washed with a base buffer three times, and then a base buffer (20 μL) was added thereto, followed by analysis with FLIPR TETRA (Molecular Devices). The base buffer (10 μL) solution of the test drug was added thereto to a final concentration (1 nM to 30 μM) and the measurement of a change in the fluorescence was initiated. Thereafter, GABA (1 μM, 20 μL) was added thereto and the measurement was continued. The change in the fluorescence was measured every two or five seconds.
The maximum reaction rate of 100 μM GABA was taken as 100%. […]

[2] = tested on: spontaneous alternation behavior (short-term memory impairment); test: Y-maze test: improvement effect on MK-801-induced cognitive impairment; type: in vivo, mouse; settings: oral, once, 30 minutes before test; ddY male mice; MK-801 0.15 mg/kg i.p.; spontaneous alternation rate
Procedure: The effect on the improvement of short-term memory impairment of the compound of the present invention was evaluated using a Y-maze test that is an experimental system of spontaneous alternation behavior.
As the Y maze, a maze, in which three runways having a length of one arm of 40 cm, a height of a wall of 13 cm, a width of a floor of 3 cm, and a width of a top of 10 cm are each joined at 120 degrees in a Y shape, was used. […]
The mouse was placed at one end of a certain place in the runway in the Y maze, and then freely explored for 8 minutes, and the runways into which the mice invaded and the order thereof were recorded. The number of the entries of the mice within a measurement time was counted and defined as a total number of entries. Among these, a combination when the mice invaded into different three runways (for example, in a case where the three arms are referred to as a, b, and c, respectively, and the order of the arms with entries is abccbacab, the number was counted as 4, including the repetition) was defined as the number of spontaneous alternation behaviors. For the spontaneous alternation rate, a spontaneous alternation rate calculated by the following equation was taken as an index of spontaneous alternation behavior: Spontaneous alternation rate=number of spontaneous alternation behaviors/(total number of entries−2)×100. […]

[3] = tested on: pressure pain threshold in the gastrocnemius muscle; test: Pressure pain threshold in model with reserpine-induced muscle pain; type: in vivo; settings: oral, measured after 30 minutes; male SD rat; reserpine 1 mg/kg s.c. for 3 days
Procedure: This model is a model that mimics the pathological conditions of fibromyalgia. This test was carried out on the basis of the description in Pain, 2009, vol. 146, p. 26-33. Reserpine (1 mg/kg) was subcutaneously administered to the male SD rat (Japan SLC, Inc.)) once per day for 3 days. After 5 days, the solvent or the test drug was orally administered. After 30 minutes, the pressure pain threshold value was measured using a Randall-Selitto instrument (Muromachi Kikai Co., Ltd.) in the gastrocnemius muscle. The significant difference assay between the solvent group and the group administered with the test drug was carried out by comparison between the groups using a Student's t-test or a Dunnett's multiple comparison test. Here, the value obtained by administering a solvent to a normal rat not administered with reserpine was taken as 100%, and the value of the reserpine group administered with a solvent was taken as 0%. In each assay, if p<0.05 was satisfied, it was determined that there was a significant difference.

T1 sequence (Q9UBS5 1-844 isoform Q9UBS5-2): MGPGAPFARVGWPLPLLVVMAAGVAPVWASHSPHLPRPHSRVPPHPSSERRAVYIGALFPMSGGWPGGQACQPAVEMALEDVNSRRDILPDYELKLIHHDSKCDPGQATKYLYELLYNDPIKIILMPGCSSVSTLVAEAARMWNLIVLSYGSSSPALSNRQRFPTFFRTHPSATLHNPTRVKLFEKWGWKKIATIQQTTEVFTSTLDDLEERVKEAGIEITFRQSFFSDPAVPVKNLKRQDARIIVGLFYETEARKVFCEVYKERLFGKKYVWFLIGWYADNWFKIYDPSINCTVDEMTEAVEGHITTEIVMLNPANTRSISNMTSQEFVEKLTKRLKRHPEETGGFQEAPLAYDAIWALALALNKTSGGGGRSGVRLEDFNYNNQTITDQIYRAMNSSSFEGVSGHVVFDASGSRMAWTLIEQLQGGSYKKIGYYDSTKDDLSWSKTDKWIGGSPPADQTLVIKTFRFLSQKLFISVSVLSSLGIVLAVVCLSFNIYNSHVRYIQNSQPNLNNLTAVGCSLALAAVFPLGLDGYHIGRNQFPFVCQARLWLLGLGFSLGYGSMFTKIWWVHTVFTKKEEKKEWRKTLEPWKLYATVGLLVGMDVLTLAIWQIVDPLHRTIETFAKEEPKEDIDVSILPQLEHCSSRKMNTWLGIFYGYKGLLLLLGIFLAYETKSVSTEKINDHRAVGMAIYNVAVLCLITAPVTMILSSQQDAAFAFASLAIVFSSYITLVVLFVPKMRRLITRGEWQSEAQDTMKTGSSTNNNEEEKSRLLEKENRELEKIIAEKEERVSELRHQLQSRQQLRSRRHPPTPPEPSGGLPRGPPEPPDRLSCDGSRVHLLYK
T1 sequence (O75899 42-941): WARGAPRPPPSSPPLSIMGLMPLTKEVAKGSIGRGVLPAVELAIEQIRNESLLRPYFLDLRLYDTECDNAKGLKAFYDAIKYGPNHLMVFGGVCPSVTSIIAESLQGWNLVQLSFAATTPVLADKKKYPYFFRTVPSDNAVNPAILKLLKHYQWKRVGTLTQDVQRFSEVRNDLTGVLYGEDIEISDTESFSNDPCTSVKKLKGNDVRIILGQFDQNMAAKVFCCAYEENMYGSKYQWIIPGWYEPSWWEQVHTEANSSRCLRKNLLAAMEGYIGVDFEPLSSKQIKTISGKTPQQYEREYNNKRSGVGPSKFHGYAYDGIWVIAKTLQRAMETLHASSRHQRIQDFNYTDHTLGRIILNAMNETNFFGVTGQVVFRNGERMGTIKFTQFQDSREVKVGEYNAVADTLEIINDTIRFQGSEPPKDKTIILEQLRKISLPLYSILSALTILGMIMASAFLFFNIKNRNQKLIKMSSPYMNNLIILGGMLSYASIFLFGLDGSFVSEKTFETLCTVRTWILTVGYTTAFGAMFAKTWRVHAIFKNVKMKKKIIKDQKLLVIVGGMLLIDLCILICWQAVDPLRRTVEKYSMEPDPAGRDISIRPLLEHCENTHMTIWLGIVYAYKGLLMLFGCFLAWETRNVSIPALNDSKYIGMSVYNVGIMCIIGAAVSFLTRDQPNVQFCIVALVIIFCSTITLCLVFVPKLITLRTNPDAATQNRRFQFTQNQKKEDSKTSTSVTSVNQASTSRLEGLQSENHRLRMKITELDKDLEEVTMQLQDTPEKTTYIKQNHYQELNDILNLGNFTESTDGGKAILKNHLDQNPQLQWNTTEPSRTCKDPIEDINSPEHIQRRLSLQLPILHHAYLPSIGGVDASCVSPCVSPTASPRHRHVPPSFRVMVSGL

Row | EC50 [1] [nM] | Emax [1] [%] | SMILES | MED [2] [mg/kg] | MED [3] [mg/kg]
1 | 220 | 273 | Cc1nc(CN2CC[C@@H](O)[C@H](O)C2)c2cc(C3CCC(C)(C)CC3)sc2n1 (single isomer, unassigned) [Ex31, trans-1-{[6-(4,4-dimethylcyclohexyl)-2-methylthieno[2,3-d]pyrimidin-4-yl]methyl}piperidine-3,4-diol] | 1.0 | 
2 | 59 | 470 | Cc1nc(CN2CCS(=O)(=O)CC2)c2cc(C3CCC(C)(C)CC3)sc2n1 [Ex2, 6-(4,4-dimethylcyclohexyl)-4-[(1,1-dioxidothiomorpholin-4-yl)methyl]-2-methylthieno[2,3-d]pyrimidine] | 0.1 | 0.03
